Assay results published in US20220079966A1, “HYALURONAN SYNTHESIS INHIBITION FOR TREATING AUTOIMMUNE, INFLAMMATORY, FIBROTIC, OR PROLIFERATIVE DISEASES OR DISORDERS” (The Board of Trustees of the Leland Stanford Junior …, priority 2018, published 2022).

What was measured:
[1] = tested on: human cell lines; experiment: HA synthesis by human cell lines (unpublished data); assay type: cell-based; conditions: compared with parent drug 4-MU
[2] = cited from earlier work
[3] = design: species or system mice; conditions: mouse, in vivo
Procedure: The 4-MU (Alfa Aesar) was pressed into mouse chow (TestDiet, St. Louis, Mo.) and irradiated before shipment, as previously described (Nagy N., et al., Circulation. 2010; 122(22):2313-2322). This chow formulation delivers 250 mg/mouse/day, yielding a serum drug concentration of 640.3±17.2 nmol/L in mice, as measured by HPLC-MS. 4-MUG (ChemImpex, Wood Dale, Ill.) was distributed in the drinking water at a concentration of 2 mg/ml, delivering 10 mg/mouse/day, yielding a serum drug concentration of 357.1±72.6 ng/mL in mice, as measured by LC-MS/MS. Mice were initiated on 4-MU and 4-MUG at five, eight or twelve weeks of age, unless otherwise noted, and were maintained on this diet until they were euthanized, unless otherwise noted. For analysis of Foxp3+ regulatory T-cell numbers in naïve mice, mice were treated daily with 0.5 mg of 4-MU or 1.0 mg 4-MUG in 200 μl 0.08% carboxymethylcellulose in saline by intra-peritoneal injection.
4-methylumbelliferone-13C4 (Toronto Research Chemicals, Ontario, Canada) was used as the internal standard (IS) for 4-MU and 7-hydroxycoumarin β-D-glucuronide (Toronto Research Chemicals, Ontario, Canada) as the IS for 4-MUG. The neat stock solutions of 4-MU and 4-MUG were mixed and diluted in 50% methanol to prepare the spiking solutions ranging from 1 ng/mL to 5000 ng/mL for each compound. […]

| amount of 4-MUG in fat and muscle, 4-MU treatment compared to 4-MUG treatment [3] | SMILES | inhibition of HA synthesis by human cell lines [1] | fraction of a single intravenous dose eliminated as the 4-MUG metabolite in urine ([2]; in humans, single intravenous dose of 4-MU) | half-life ([2]; in humans) | share of 4-MU metabolism accounted for by glucuronidation into 4-MUG ([2]; in humans) | fraction of a given dose excreted unchanged in the urine ([2]; species not given) | systemic oral bioavailability ([2]; species not given) |
| --- | --- | --- | --- | --- | --- | --- | --- |
| – | Cc1cc(=O)oc2cc(O[C@@H]3O[C@H](C(=O)O)[C@@H](O)[C@H](O)[C@H]3O)ccc12 [4-MUG, 4-methylumbelliferone-glucuronide] | just as well as the parent drug | – | – | – | – | – |
| significantly higher amount of 4-MUG | Cc1cc(=O)oc2cc(O)ccc12 [4-MU, 4-methylumbelliferone] | – | 93% | 28 min | over 90% | < 1% | < 3% |
